Data taken from PubChem BioAssay AID328 (DTP/NCI, 2004).
Where “and” joins values, the source holds several entries; their conditions need not be identical. Identical values can stand only once. Toxic doses and inconclusive results are not listed. The calls were made as follows: active = survival T/C of 150% or more; inactive = T/C below 125% in these data.

System: BDF1 mice, P388 leukemia ip, median survival T/C
Experiment: NCI In Vivo Anticancer Drug Screen. Data for tumor model P388 Leukemia (intraperitoneal) in B6D2F1 (BDF1) mice
Details: endpoint: median survival time, higher = longer survival
Summary of the method: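 T/C = treated-group survival ÷ vehicle-control survival; tumour transplanted into mice before dosing.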

[1] = dose: 50.0 mg/kg/injection, schedule: Q01DX009 (ip), vehicle: saline with Tween-80
[2] = dose: 100.0 mg/kg/injection, schedule: Q01DX009 (ip), vehicle: saline with Tween-80
[3] = dose: 200.0 mg/kg/injection, schedule: Q01DX009 (ip), vehicle: saline with Tween-80
[4] = dose: 6.25 mg/kg/injection, schedule: Q01DX009 (ip), vehicle: saline with Tween-80
[5] = dose: 12.5 mg/kg/injection, schedule: Q01DX009 (ip), vehicle: saline with Tween-80
[6] = dose: 25.0 mg/kg/injection, schedule: Q01DX009 (ip), vehicle: saline with Tween-80
[7] = dose: 100.0 mg/kg/injection, schedule: Q04DX003 (ip), vehicle: saline with Tween-80
[8] = dose: 25.0 mg/kg/injection, schedule: Q01DX001 (ip), vehicle: saline with Tween-80
[9] = dose: 50.0 mg/kg/injection, schedule: Q01DX001 (ip), vehicle: saline with Tween-80
[10] = dose: 100.0 mg/kg/injection, schedule: Q01DX001 (ip), vehicle: saline with Tween-80

Measured: T/C

O=C1C(=O)c2ccccc2C(O)=C1CC=C(Cl)Cl
inactive: dose: 6.2 mg/kg/injection, schedule: Q01DX005 (ip), vehicle: water 100 % of control | dose: 12.5 mg/kg/injection, schedule: Q01DX001 (ip), vehicle: water 100 % of control | dose: 12.5 mg/kg/injection, schedule: Q01DX005 (ip), vehicle: water 100 % of control | dose: 12.5 mg/kg/injection, schedule: Q01DX010 (ip), vehicle: saline 100 % of control | dose: 12.5 mg/kg/injection, schedule: Q03HX024 (ip), vehicle: water 100 % of control | dose: 12.5 mg/kg/injection, schedule: Q04DX003 (ip), vehicle: water 100 % of control | dose: 12.5 mg/kg/injection, schedule: Q08DX002 (ip), vehicle: water 100 % of control | dose: 25.0 mg/kg/injection, schedule: Q01DX001 (ip), vehicle: water 108 % of control | dose: 25.0 mg/kg/injection, schedule: Q01DX005 (ip), vehicle: water 100 % of control | dose: 25.0 mg/kg/injection, schedule: Q01DX009 (ip), vehicle: water 100 % of control | dose: 25.0 mg/kg/injection, schedule: Q01DX009 (oral), vehicle: water 100 % of control | dose: 25.0 mg/kg/injection, schedule: Q01DX010 (ip), vehicle: saline 87 % of control | dose: 25.0 mg/kg/injection, schedule: Q03HX008 (ip), vehicle: water 100 % of control | dose: 25.0 mg/kg/injection, schedule: Q03HX016 (ip), vehicle: water 109 % of control | dose: 25.0 mg/kg/injection, schedule: Q03HX024 (ip), vehicle: water 100 % of control | dose: 25.0 mg/kg/injection, schedule: Q04DX003 (ip), vehicle: water 100 % of control | dose: 25.0 mg/kg/injection, schedule: Q08DX002 (ip), vehicle: water 109 % of control | dose: 50.0 mg/kg/injection, schedule: Q01DX001 (ip), vehicle: water 108 % of control | dose: 50.0 mg/kg/injection, schedule: Q01DX001 (oral), vehicle: water 108 % of control | dose: 50.0 mg/kg/injection, schedule: Q01DX005 (ip), vehicle: water 100 % of control | dose: 50.0 mg/kg/injection, schedule: Q01DX009 (oral), vehicle: water 100 % of control | dose: 50.0 mg/kg/injection, schedule: Q01DX010 (ip), vehicle: saline 91 % of control | dose: 50.0 mg/kg/injection, schedule: Q01DX010 (oral), vehicle: saline with Tween-80 104 % of control | dose: 50.0 mg/kg/injection, schedule: Q03HX008 (ip), vehicle: water 100 % of control | dose: 50.0 mg/kg/injection, schedule: Q03HX016 (ip), vehicle: water 100 % of control | dose: 50.0 mg/kg/injection, schedule: Q03HX024 (ip), vehicle: water 86 % of control | dose: 50.0 mg/kg/injection, schedule: Q04DX003 (ip), vehicle: water 100 % of control | dose: 50.0 mg/kg/injection, schedule: Q08DX002 (ip), vehicle: water 109 % of control | dose: 75.0 mg/kg/injection, schedule: Q01DX005 (ip), vehicle: water 108 % of control | dose: 75.0 mg/kg/injection, schedule: Q03HX024 (ip), vehicle: water 86 % of control | dose: 75.0 mg/kg/injection, schedule: Q04DX003 (ip), vehicle: water 100 % of control | dose: 100.0 mg/kg/injection, schedule: Q01DX001 (oral), vehicle: water 108 % of control | dose: 100.0 mg/kg/injection, schedule: Q01DX009 (oral), vehicle: water 86 % of control | dose: 100.0 mg/kg/injection, schedule: Q01DX010 (oral), vehicle: saline with Tween-80 108 % of control | dose: 100.0 mg/kg/injection, schedule: Q03HX008 (ip), vehicle: water 100 % of control | dose: 100.0 mg/kg/injection, schedule: Q03HX016 (ip), vehicle: water 100 % of control | dose: 100.0 mg/kg/injection, schedule: Q03HX024 (ip), vehicle: water 100 % of control | dose: 100.0 mg/kg/injection, schedule: Q08DX002 (ip), vehicle: water 109 % of control | dose: 200.0 mg/kg/injection, schedule: Q01DX001 (oral), vehicle: water 100 % of control | dose: 200.0 mg/kg/injection, schedule: Q03HX008 (ip), vehicle: water 109 % of control | dose: 200.0 mg/kg/injection, schedule: Q03HX016 (ip), vehicle: water 100 % of control | dose: 300.0 mg/kg/injection, schedule: Q01DX009 (oral), vehicle: water 91 % of control

CC(C)c1cccc(C(C)C)c1NC(=O)N1CCOCC1
inactive: [1] 100 % of control | [2] 93 % of control | [3] 90 % of control

N#CCC(C#N)N1CCOCC1 (stereo not drawn)
inactive: [4] 111 % of control | [5] 96 % of control | [6] 88 % of control | dose: 50.0 mg/kg/injection, schedule: Q04DX003 (ip), vehicle: saline with Tween-80 104 % of control | [7] 108 % of control

c1ccc2c(c1)OCCOCCOc1ccccc1OCCOCCO2
inactive: dose: 4.69 mg/kg/injection, schedule: Q01DX009 (ip), vehicle: saline with Tween-80 100 % of control | dose: 9.38 mg/kg/injection, schedule: Q01DX009 (ip), vehicle: saline with Tween-80 90 % of control | dose: 18.7 mg/kg/injection, schedule: Q01DX009 (ip), vehicle: saline with Tween-80 90 % of control | [7] 100 % of control | dose: 150.0 mg/kg/injection, schedule: Q01DX009 (ip), vehicle: saline with Tween-80 89 % of control | dose: 200.0 mg/kg/injection, schedule: Q04DX003 (ip), vehicle: saline with Tween-80 100 % of control | dose: 400.0 mg/kg/injection, schedule: Q04DX003 (ip), vehicle: saline with Tween-80 105 % of control

Cc1sc(C)c2c1C[Se]Cc1c(C)sc(C)c1C[Se]C2
inactive: dose: 12.5 mg/kg/injection, schedule: Q01DX001 (ip), vehicle: saline with Tween-80 95 % of control | [8] 107 % of control | [9] 118 % of control

C=C1C/C(=C/C)C(=O)O[C@@H]2CCN3CC=C(COC(=O)[C@]1(C)O)[C@H]23
inactive: dose: 25.0 mg/kg/injection, schedule: Q01DX010 (ip), vehicle: carboxymethylcellulose (CMC) 111 % of control | dose: 50.0 mg/kg/injection, schedule: Q01DX010 (ip), vehicle: carboxymethylcellulose (CMC) 111 % of control | dose: 100.0 mg/kg/injection, schedule: Q01DX010 (ip), vehicle: carboxymethylcellulose (CMC) 111 % of control

CSc1nc(NCc2ccc(Cl)cc2)c2[nH]c(C)nc2n1
inactive: dose: 0.78 mg/kg/injection, schedule: Q01DX009 (ip), vehicle: saline with Tween-80 122 % of control | dose: 1.56 mg/kg/injection, schedule: Q01DX009 (ip), vehicle: saline with Tween-80 101 % of control | dose: 3.13 mg/kg/injection, schedule: Q01DX009 (ip), vehicle: saline with Tween-80 97 % of control | [4] 93 % of control

CSC(=S)N/N=C(\C)C1CCCC[N-]1.[I][Zn][I] (stereo not drawn)
inactive: [5] 109 % of control and 110 % of control and 115 % of control | [6] 109 % of control (2×) and 117 % of control | [2] 118 % of control

O=C(NCCNc1ccc(F)cc1)C12CC3CC(CC(C3)C1)C2
inactive: [1] 91 % of control | [2] 104 % of control | [3] 97 % of control

Cc1cc(N(C)C)c2ccc3ccccc3c2n1
inactive: [1] 93 % of control | [2] 95 % of control | [3] 101 % of control

N#CC(/C=C/c1ccccc1)Nc1ccccc1C(N)=O (stereo not drawn)
inactive: [8] 109 % of control | [9] 104 % of control | [10] 100 % of control

CC(=O)ON(CC(=O)OCc1ccccc1)C(C)=O
inactive: dose: 12.5 mg/kg/injection, schedule: Q01DX009 (ip), vehicle: other 100 % of control | dose: 25.0 mg/kg/injection, schedule: Q01DX009 (ip), vehicle: other 102 % of control | dose: 50.0 mg/kg/injection, schedule: Q01DX009 (ip), vehicle: other 118 % of control | dose: 100.0 mg/kg/injection, schedule: Q01DX009 (ip), vehicle: other 102 % of control | dose: 200.0 mg/kg/injection, schedule: Q01DX009 (ip), vehicle: other 100 % of control

COC(OC)c1ccccc1
inactive: [1] 99 % of control | [2] 115 % of control | [3] 108 % of control

CCOC(=O)C1=C(C)NC(C)=C(C(=O)OCC)C1
inactive: [10] 90 % of control | dose: 200.0 mg/kg/injection, schedule: Q01DX001 (ip), vehicle: saline with Tween-80 95 % of control | dose: 400.0 mg/kg/injection, schedule: Q01DX001 (ip), vehicle: saline with Tween-80 100 % of control

C=CCCCCCCCCC(=O)NC[n+]1cccc(O)c1
inactive: [6] 110 % of control | [1] 100 % of control | [2] 100 % of control
